Assay results reported in US4741899A, “Process for arresting the proliferation of organisms that convert axillary secretions to malodorous materials” (Bristol-Myers Company, priority 1983, dated 1988).
Structures can show the parent of a compound that is named as a salt.

Key:
Staph (Axilla) = assay: In vitro minimum inhibitory (bactericidal) concentration, Staph (Axilla); format: cell-based, staphylococci; settings: 24 hrs. at 35° C., subculture further 24 hrs.; liquid culture medium
Protocol: (§1) To test the activity of the compounds employed in the present invention in arresting the proliferation of axillary organisms (e.g. corynebacteria and staphylococci) the following in vitro study was carried out:
(§2) Aqueous solutions (or suspensions) were prepared for each test substance. Serial two-fold dilutions of the above were then made in liquid culture medium. Each tube (10 ml of liquid) in the dilution series was inoculated with 0.2 ml of a 1:500 dilution of 24 hr. culture of bacteria. After 24 hrs. at 35° C., tubes showing turbidity (growth) were noted. All non-turbid dilutions were subcultured to liquid growth medium and incubated an additional 24 hrs. at 35° C. The lowest concentration of substance which yielded no growth upon subculture was noted as the minimum inhibitory (bactericidal) concentration (=MIC).
(§3) The numbers appearing in columns 2 and 3 give the minimum inhibitory concentration in percent (MIC %) for the materials tested i.e. the minimum concentration in percent of the agent tested which will inhibit the proliferation of the test organisms. The entries in the last column are judgments with respect to the activity of the agent tested.

Diphth (Axilla) = assay: In vitro minimum inhibitory (bactericidal) concentration, Diphth (Axilla); format: cell-based, aerobic diphtheroids (corynebacteria); settings: 24 hrs. at 35° C., subculture further 24 hrs.; liquid culture medium
Protocol: as §1, §2, §3

[1] = test system: axillary organisms (e.g. corynebacteria and staphylococci); assay: In vitro Studies - Summary, judgment of activity against axillary organisms; format: cell-based; settings: Staph and Diphth (Axilla)
Protocol: as §1, §2, §3

SMILES	MIC (%) - cidal, Staph (Axilla) (Staph (Axilla))	MIC (%) - cidal, Diphth (Axilla) (Diphth (Axilla))	Comments (judgment with respect to the activity of the agent tested) [1]
CC(CNC1CCCCC1)OC(=O)c1ccccc1 (stereo not drawn) [Hexylcaine HCl]	0.16%	0.16%	–
c1ccc2c(CC3=NCCN3)cccc2c1 [Naphazoline HCl]	0.31%	0.31%	–
CN1CCC2=C(C1)C(c1ccccc1)c1ccccc12 (stereo not drawn) [Phenindamine tartrate]	0.04%	0.08%	Good Activity
COc1ccc(CN(CCN(C)C)c2ccccn2)cc1 [Pyrilamine maleate]	0.63%	0.63%	–
CCCCNc1ccc(C(=O)OCCN(C)C)cc1 [Tetracaine HCl]	0.08%	0.08%	–
CN(C)CCN(Cc1ccccc1)c1ccccn1 [Tripelennamine HCl]	0.63%	0.31%	–
Cc1cc(C(C)(C)C)cc(C)c1CC1=NCCN1 [Xylometazoline HCl]	0.08%	0.04%	–
